Several values for one entry are separate records, joined by “and”; a condition that tells them apart may be missing. Equal values may be shown once.
Experiments:
[1] = molecular target: wild-type EGFR (Homo sapiens, UniProt P00533); experiment: EGFR kinase assay (ELISA); conditions: for A450: raw ELISA absorbance
[2] = system: EGFR phosphorylation (Tyr1068) in H460 cells; experiment: Western blot, p-EGFR/EGFR in H460; conditions: H460, 10 uM
Experimental: (§1) We also performed western blot analysis to evaluate the impact of e4 and e12 on EGFR signaling in PC-9 and H460 cells.
(§2) H460 cells were seeded in six-well plates with serum-free medium overnight, and then treated complete medium containing 0.1% DMSO, various concentrations (0.1, 1 and 10 μM) of either compound e4 or e12 for 2 h, respectively. […] Then the H460 cells were treated with complete medium containing EGF (10 ng/ml) for 5 min. Then the cells were harvested and washed with PBS, centrifuged, resuspended in 100–200 μl of RIPA lysis buffer containing Protease and Phosphatase Inhibitor Cocktail (1X), and then centrifuged for 5 min at 12,000 rpm at 4°C. The supernatant was used for protein analysis. […] Then the membrane was washed 5 min (X3) and incubated at 1:3,000 dilution of anti-rabbit secondary antibodies or 1:1,000 dilution of anti-mouse secondary antibodies for 1 h at RT. After washing with TBST 5 min (X3), protein bands were developed by chemiluminescence. The protein levels were quantified by the gray values of the bands in the resulting images by ImageJ, and the control group was used as the standard. […] The PC-9 cells were harvested and analyzed as above.

[3] = system: H1975 cells; experiment: CCK-8 antiproliferation assay, H1975
Experimental: The compounds were dissolved in DMSO to make a 20 μM stock solution and diluted to the concentration of working solutions with complete growth medium before administration.
Cells were seeded in 96-well plates: 3,000–5,000 cells/well in 100 ul. One day after seeding, the test compounds at concentration between 1.0 and 16.0 μ M or 0.1% DMSO (as control) were added to cells in triplicate. 48 h later, CCK-8 was added and incubated the plate for 1–4 h in the incubator. The absorbance at 450 nm were measured using a microplate reader (Bio-Tek).

[4] = system: PC-9 xenograft; experiment: In vivo antitumor activity, PC-9 xenograft in NSG mice; design: species or system mouse; conditions: Day19, individual animals
Experimental: The mouse body mass was recorded as well.

[5] = system: AKT phosphorylation (S473) in H460 cells; experiment: Western blot, p-AKT/AKT in H460; conditions: H460, 10 uM
Experimental: as §1, §2

[6] = system: H460 cells; experiment: CCK-8 antiproliferation assay, H460
[7] = system: A549 cells; experiment: CCK-8 antiproliferation assay, A549; conditions: for Inhibitory efficacy: A549 cells
[8] = system: AKT phosphorylation (S473) in PC-9 cells; experiment: Western blot, p-AKT/AKT in PC-9; conditions: PC-9, 10 uM
Experimental: as §1, §2

[9] = system: PC-9 cells; experiment: CCK-8 antiproliferation assay, PC-9; conditions: Homo sapiens, PC-9, 48 h, read-out: IC50 (μM) PC-9
[10] = system: EGFR phosphorylation (Tyr1068) in PC-9 cells; experiment: Western blot, p-EGFR/EGFR in PC-9; conditions: PC-9, 10 uM
Experimental: as §1, §2

Chain of wild-type EGFR (P00533 25-1210): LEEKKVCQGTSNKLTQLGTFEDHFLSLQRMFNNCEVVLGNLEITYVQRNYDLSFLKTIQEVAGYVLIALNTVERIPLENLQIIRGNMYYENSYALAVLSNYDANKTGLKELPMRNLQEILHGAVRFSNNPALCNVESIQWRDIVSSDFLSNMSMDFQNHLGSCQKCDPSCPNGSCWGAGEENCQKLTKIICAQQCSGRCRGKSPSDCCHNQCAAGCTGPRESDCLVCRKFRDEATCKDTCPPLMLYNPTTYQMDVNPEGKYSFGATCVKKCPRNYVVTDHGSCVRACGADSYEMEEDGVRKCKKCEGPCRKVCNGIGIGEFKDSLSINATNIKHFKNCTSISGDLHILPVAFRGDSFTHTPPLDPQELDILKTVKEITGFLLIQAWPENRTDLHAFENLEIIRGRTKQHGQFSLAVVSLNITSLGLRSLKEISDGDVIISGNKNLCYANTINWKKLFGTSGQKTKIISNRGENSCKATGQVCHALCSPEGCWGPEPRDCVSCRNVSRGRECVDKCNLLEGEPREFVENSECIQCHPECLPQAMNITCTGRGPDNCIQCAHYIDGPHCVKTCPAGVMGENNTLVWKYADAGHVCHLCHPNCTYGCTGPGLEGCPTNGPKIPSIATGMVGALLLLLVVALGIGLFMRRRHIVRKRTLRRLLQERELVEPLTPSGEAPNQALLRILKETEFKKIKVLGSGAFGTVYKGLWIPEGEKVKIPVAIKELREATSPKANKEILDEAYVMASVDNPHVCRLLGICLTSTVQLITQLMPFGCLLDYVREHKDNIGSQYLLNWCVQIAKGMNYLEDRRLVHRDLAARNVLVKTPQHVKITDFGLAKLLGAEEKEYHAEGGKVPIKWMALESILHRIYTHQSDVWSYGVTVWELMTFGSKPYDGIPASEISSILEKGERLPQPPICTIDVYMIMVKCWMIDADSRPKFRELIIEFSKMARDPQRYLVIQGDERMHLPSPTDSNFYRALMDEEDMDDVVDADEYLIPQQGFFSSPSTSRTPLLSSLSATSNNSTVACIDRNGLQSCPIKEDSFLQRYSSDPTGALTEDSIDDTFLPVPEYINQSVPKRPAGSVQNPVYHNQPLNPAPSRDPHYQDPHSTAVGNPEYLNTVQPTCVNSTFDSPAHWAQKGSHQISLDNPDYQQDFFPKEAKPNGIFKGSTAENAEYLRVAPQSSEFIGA

IC50 ([1]; IC50 (μM) EGFR, ELISA, 3 μmol/L ATP): 0.09 µM
inhibition at 100 fM ([1]; concentration 0.0001 nM (reference for normalisation), one value per replicate column): 0%
Inhibition ([1]; concentration 0.03 nM, one value per replicate column, 3e-05 µM): 3.563 and 0.1327
Inhibition ([1]; concentration 0.3 nM, one value per replicate column, 0.0003 µM): 14.0143 and 0.8626
inhibition at 0.003 µM ([1]; concentration 3 nM, one value per replicate column): 33.2%
Inhibition ([1]; concentration 3 nM, one value per replicate column, 0.003 µM): 30.0597
inhibition at 0.03 µM ([1]; concentration 30 nM, one value per replicate column): 44.4%
Inhibition ([1]; concentration 30 nM, one value per replicate column, 0.03 µM): 47.6443
inhibition at 0.3 µM ([1]; concentration 300 nM, one value per replicate column): 59.3%
Inhibition ([1]; concentration 300 nM, one value per replicate column, 0.3 µM): 58.7259
inhibition at 3 µM ([1]; concentration 3000 nM, one value per replicate column): 68.1%
Inhibition ([1]; concentration 3000 nM, one value per replicate column, 3 µM): 67.4851
inhibition at 30 µM ([1]; concentration 30000 nM, one value per replicate column): 86.9%
Inhibition ([1]; concentration 30000 nM, one value per replicate column, 30 µM): 93.1652
A450 ([1]; concentration 0.0001 nM): 1.566 and 1.805
A450 ([1]; concentration 0.03 nM): 1.521 and 1.803
A450 ([1]; concentration 0.3 nM): 1.389 and 1.792
A450 ([1]; concentration 3 nM): 1.147 and 1.352
A450 ([1]; concentration 30 nM): 1.005 and 1.087
A450 ([1]; concentration 300 nM): 0.817 and 0.92
A450 ([1]; concentration 3000 nM): 0.706 and 0.788
A450 ([1]; concentration 30000 nM): 0.469 and 0.401
IC50 ([3]; Homo sapiens, NCI-H1975, 48 h, read-out: IC50 (μM) H1975, CCK-8, 48 h, average ± SD of three independent experiments): > 100 µM
IC50 ([6]; Homo sapiens, NCI-H460, 48 h, read-out: IC50 (μM) H460, CCK-8, 48 h, average ± SD of three independent experiments): > 100 µM
IC50 ([7]; Homo sapiens, A549, 48 h, read-out: IC50 (μM) A549, CCK-8, 48 h, average ± SD of three independent experiments): > 100 µM
IC50 [9]: > 100 µM
SMILES: COCCOc1cc2ncnc(Nc3cccc(-c4cn(-c5ccccc5)nn4)c3)c2cc1OCCOC [e15, [6,7-Bis-(2-methoxy-ethoxy)-quinazolin-4-yl]-[3-(1-phenyl-1H-[1,2,3]triazol-4-yl)-phenyl]-amine]
p-EGFR/EGFR ([2]; band density ratio): 0.02304
p-EGFR/EGFR relative to DMSO ([2]; ratio normalised to DMSO): 0.02768
Inhibitory efficacy ([3]; H1975 cells, 8uM, given as fraction, Repeat 1-3): 0.07522 and 0.1057
inhibition at 8 µM ([3]; Homo sapiens, NCI-H1975, read-out: Inhibitory efficacy, H1975 cells, 8uM, given as fraction, Repeat 1-3): 6.27%
Tumor weight [4]: 0.04 g and 0.03 g and 0.02 g and 0.01 g
p-AKT/AKT ([5]; band density ratio): 0.08408
p-AKT/AKT relative to DMSO ([5]; ratio normalised to DMSO): 0.08452
Inhibitory efficacy ([6]; H460 cells, 2uM, given as fraction, Repeat 1-3): 0.04615 and 0.05031
inhibition at 2 µM ([6]; Homo sapiens, NCI-H460, read-out: Inhibitory efficacy, H460 cells, 2uM, given as fraction, Repeat 1-3): 5.86%
Inhibitory efficacy ([7]; 1uM, given as fraction, Repeat 1-3): 0.1367 and 0.1269
Inhibitory efficacy ([7]; 2uM, given as fraction, Repeat 1-3): 0.193 and 0.2629
Inhibitory efficacy ([7]; 4uM, given as fraction, Repeat 1-3): 0.2103 and 0.2621
Inhibitory efficacy ([7]; 8uM, given as fraction, Repeat 1-3): 0.2141 and 0.1622
Inhibitory efficacy ([7]; 16uM, given as fraction, Repeat 1-3): 0.2043 and 0.1059
inhibition at 1 µM ([7]; Homo sapiens, A549, read-out: Inhibitory efficacy, A549 cells, 1uM, given as fraction, Repeat 1-3): 11.7%
inhibition at 2 µM ([7]; Homo sapiens, A549, read-out: Inhibitory efficacy, A549 cells, 2uM, given as fraction, Repeat 1-3): 15.2%
inhibition at 4 µM ([7]; Homo sapiens, A549, read-out: Inhibitory efficacy, A549 cells, 4uM, given as fraction, Repeat 1-3): 18.5%
inhibition at 8 µM ([7]; Homo sapiens, A549, read-out: Inhibitory efficacy, A549 cells, 8uM, given as fraction, Repeat 1-3): 14.6%
inhibition at 16 µM ([7]; Homo sapiens, A549, read-out: Inhibitory efficacy, A549 cells, 16uM, given as fraction, Repeat 1-3): 11.9%
p-AKT/AKT ([8]; band density ratio): 0.03365
p-AKT/AKT relative to DMSO ([8]; ratio normalised to DMSO = 1): 0.03231
p-EGFR/EGFR ([10]; band density ratio): 0.2353
p-EGFR/EGFR relative to DMSO ([10]; ratio normalised to DMSO = 1): 0.2103
